Patent publication US20230346952A1, “CANNABINOID GLYCOSIDE PRODRUGS AND METHODS OF SYNTHESIS” (priority 2015, published 2023)

How the values were obtained:
[1] = tested on: Vinotaste Pro (Novozymes); assay: In vitro digestion with Vinotaste Pro; details: same digestion conditions as for Lallzyme Beta; HPLC
[2] = molecular target: safety screen panel of human pharmacological targets (Homo sapiens, UniProt P21554); assay: biochemical; details: read-out: percent inhibition: CB1 (h) (agonist radioligand)
Sequence of safety screen panel of human pharmacological targets (P21554 whole entry): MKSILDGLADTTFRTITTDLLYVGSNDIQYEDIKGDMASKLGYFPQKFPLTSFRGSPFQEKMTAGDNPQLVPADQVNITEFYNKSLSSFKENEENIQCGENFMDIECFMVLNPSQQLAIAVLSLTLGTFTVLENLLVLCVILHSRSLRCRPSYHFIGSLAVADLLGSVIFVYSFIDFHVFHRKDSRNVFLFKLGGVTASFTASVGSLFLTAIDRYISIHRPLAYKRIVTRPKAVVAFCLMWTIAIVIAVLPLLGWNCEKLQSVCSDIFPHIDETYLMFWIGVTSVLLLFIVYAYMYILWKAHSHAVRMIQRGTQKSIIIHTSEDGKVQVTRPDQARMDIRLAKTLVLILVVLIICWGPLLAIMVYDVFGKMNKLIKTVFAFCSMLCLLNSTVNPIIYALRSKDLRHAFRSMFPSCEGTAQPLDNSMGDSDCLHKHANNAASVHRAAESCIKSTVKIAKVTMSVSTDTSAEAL

glycoside hydrolases = assay: In vitro digestion screening with commercially available glycoside hydrolases (Table K); details: Enzyme 1 of Table K
[3] = Rat plasma toxicokinetics post VB311 administration at 1,000 mg/kg; details: for relative amount in plasma: label = analyte
[4] = molecular target: T1, human cannabinoid receptor type 1 (CB1R) (Homo sapiens, UniProt P21554); format: binding; details: 10 µM test compound; 2.0 nanomolar [3H] SR141716A; human recombinant Chem-1 cells; 90 minutes at 37 C
T1 construct: expressed in transfected cells; host or cells: Chem-1 cells
T1 sequence (P21554 whole entry): as above

[5] = tested on: Lallzyme Beta™ (Lallemand); assay: In vitro digestion with Lallzyme Beta; details: 5 mg/ml Lallzyme Beta, 20 mM citrate buffer pH 4.0, 44° C.; HPLC
[6] = Rat plasma toxicokinetics post VB302 administration at 1,000 mg/kg; details: both, Sprague Dawley, po, 1000 mg/kg, AUC in plasma, post VB302 oral gavage 1,000 mg/kg, 1, 2, 6, 24 hours, label = analyte in plasma
[7] = Antimicrobial activity observed in phytocannabinoid glycosylation reaction mixtures; details: large-scale glycosylation reaction mixtures
[8] = 24 hours post VB311 oral gavage

Row | SMILES | digestion by Vinotaste Pro (extent / products) [1] | inhibition at 10 µM [2] [%] | digestion by glycoside hydrolase (activity / product) (glycoside hydrolases) | relative amount in plasma ([3]; 1 hour post VB311 oral gavage) | relative amount in plasma ([3]; 2 hours post VB311 oral gavage) | relative amount in plasma ([3]; 6 hours post VB311 oral gavage) | relative amount in plasma [3, 8] | percent displacement of [3H] SR141716A at human CB1R [4] [%] | digestion by Lallzyme Beta (extent / products) [5] | AUC [6] [ng·h/mL] | antimicrobial activity [7] | plasma concentration of VB302 relative to VB311 ([3]; after VB311 administration) [x]
1 | CCCCCc1cc(O[C@@H]2O[C@H](CO[C@@H]3O[C@H](CO)[C@@H](O)[C@H](O)[C@H]3O)[C@@H](O[C@@H]3O[C@H](CO)[C@@H](O)[C@H](O)[C@H]3O)[C@H](O)[C@H]2O)c2c(c1)OC(C)(C)[C@@H]1CCC(C)=C[C@@H]21 [VB311] | capable of hydrolyzing | 3 | digests VB311 to V310 | relative majority of glycosides present in the plasma | majority of glycosides present in the plasma | extensively modified | almost completely digested | 3 | very low activity | – | – | –
2 | CCCCCc1cc(O)c2c(c1)OC(C)(C)[C@@H]1CCC(C)=C[C@@H]21 [VB301, Δ9-Terahydrocannabinol, reference compound] | – | – | – | – | – | – | – | – | – | 72 | noticeable antimicrobial activity | –
3 | CCCCCc1cc(O[C@@H]2O[C@H](CO)[C@@H](O)[C@H](O)[C@H]2O)c2c(c1)OC(C)(C)[C@@H]1CCC(C)=C[C@@H]21 [VB302, Δ9THC-1-O-glucopyranoside] | – | -3 | – | Minor quantities | Minor quantities | predominant THC-glycoside present in the plasma | relative abundance was greatly increased | -3 | unable to hydrolyze VB302 back to THC | 167000 | – | 2.2
